Data published in PubChem BioAssay (NCI).
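All cell lines were grown in 96-well plates and treated with compound for 48 hours. TGI: total growth inhibition.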

Key:
Assay in all cases: NCI-60 cell line screen, 48 h
[1] = test system: BT-549 breast
[2] = test system: HT29 colon
[3] = test system: HCC-2998 colon
[4] = test system: UACC-62 melanoma
[5] = test system: DU-145 prostate
[6] = test system: SN12C renal
[7] = test system: OVCAR-8 ovarian
[8] = test system: CCRF-CEM leukemia
[9] = test system: A498 renal
[10] = test system: SK-MEL-5 melanoma
[11] = test system: A549 NSCLC
[12] = test system: OVCAR-4 ovarian
[13] = test system: PC-3 prostate
[14] = test system: SF-295 CNS
[15] = test system: CAKI-1 renal
[16] = test system: M14 melanoma
[17] = test system: IGROV1 ovarian
[18] = test system: UO-31 renal
[19] = test system: K-562 leukemia
[20] = test system: U251 CNS
[21] = test system: LOX IMVI melanoma
[22] = test system: OVCAR-5 ovarian
[23] = test system: SK-MEL-2 melanoma
[24] = test system: HCT-15 colon
[25] = test system: NCI-H522 lung
[26] = test system: SK-OV-3 ovarian
[27] = test system: SF-539 CNS
[28] = test system: EKVX NSCLC
[29] = test system: SK-MEL-28 melanoma
[30] = test system: NCI-H226 lung
[31] = test system: COLO 205 colon
[32] = test system: NCI-H23 lung
[33] = test system: SW-620 colon
[34] = test system: RXF 393 renal
[35] = test system: HL-60(TB) leukemia
[36] = test system: SF-268 CNS
[37] = test system: MDA-MB-231 breast
[38] = test system: MALME-3M melanoma
[39] = test system: NCI-H460 lung
[40] = test system: OVCAR-3 ovarian
[41] = test system: MCF7 breast
[42] = test system: 786-0 renal
[43] = test system: SNB-75 CNS
[44] = test system: NCI/ADR-RES ovarian
[45] = test system: ACHN renal
[46] = test system: UACC-257 melanoma
[47] = test system: HOP-62 NSCLC
[48] = test system: HOP-92 NSCLC
[49] = test system: MDA-MB-435
[50] = test system: HCT-116 colon
[51] = test system: SNB-19 CNS
[52] = test system: MDA-N
[53] = test system: SR leukemia
[54] = test system: TK-10 renal
[55] = test system: HS 578T breast
[56] = test system: KM12 colon
[57] = test system: MOLT-4 leukemia
[58] = test system: RPMI-8226 leukemia

SMILES: Cc1ccc(-n2cc(-c3ccc(Cl)cc3)c(C#N)c2N)cc1
- TGI [1]: 32.1 µM
- TGI [2]: 27 µM
- TGI [3]: 28.4 µM
- TGI [4]: 29.9 µM
- TGI [5]: 71.4 µM
- TGI [6]: 28 µM
- TGI [7]: 30.5 µM
- TGI [8]: > 100 µM
- TGI [9]: 35.6 µM
- TGI [10]: 29.7 µM
- TGI [11]: 43.2 µM
- TGI [12]: 28.4 µM
- TGI [13]: 25.4 µM
- TGI [14]: 33.8 µM
- TGI [15]: 45.3 µM
- TGI [16]: 28.7 µM
- TGI [17]: 29.9 µM
- TGI [18]: 26.5 µM
- TGI [19]: 47.9 µM
- TGI [20]: 27.3 µM
- TGI [21]: 29.8 µM
- TGI [22]: 30.6 µM
- TGI [23]: 29.4 µM
- TGI [24]: 25 µM
- TGI [25]: 24.7 µM
- TGI [26]: 43.4 µM
- TGI [27]: 30.9 µM
- TGI [28]: 30.5 µM
- TGI [29]: 33.2 µM
- TGI [30]: 31.7 µM
- TGI [31]: 27.1 µM
- TGI [32]: 31.5 µM
- TGI [33]: 26 µM
- TGI [34]: 23.1 µM
- TGI [35]: 90.7 µM
- TGI [36]: 42.3 µM
- TGI [37]: 28.7 µM
- TGI [38]: 33.1 µM
- TGI [39]: 30.4 µM
- TGI [40]: 29.1 µM
- TGI [41]: 28.2 µM
- TGI [42]: 29.1 µM
- TGI [43]: 47.9 µM
- TGI [44]: 39.1 µM
- TGI [45]: 50 µM
- TGI [46]: 27.9 µM
- TGI [47]: 31.9 µM
- TGI [48]: 31.5 µM
- TGI [49]: 32.7 µM
- TGI [50]: 27.1 µM
- TGI [51]: 38.1 µM
- TGI [52]: 32.5 µM
- TGI [53]: > 100 µM
- TGI [54]: 28.2 µM
- TGI [55]: 17.2 µM

SMILES: COC(=O)CCC1(O)C=CC(=O)C=C1
- TGI [1]: > 100 µM
- TGI [2]: > 100 µM
- TGI [3]: > 100 µM
- TGI [56]: > 100 µM
- TGI [4]: 58 µM
- TGI [5]: > 100 µM
- TGI [6]: > 100 µM
- TGI [7]: > 100 µM
- TGI [8]: > 100 µM
- TGI [9]: > 100 µM
- TGI [10]: > 100 µM
- TGI [11]: > 100 µM
- TGI [12]: > 100 µM
- TGI [13]: > 100 µM
- TGI [14]: > 100 µM
- TGI [15]: 33.1 µM
- TGI [16]: > 100 µM
- TGI [17]: > 100 µM
- TGI [18]: > 100 µM
- TGI [19]: > 100 µM
- TGI [20]: 63.2 µM
- TGI [21]: > 100 µM
- TGI [22]: > 100 µM
- TGI [23]: > 100 µM
- TGI [24]: 43.2 µM
- TGI [25]: 28.8 µM
- TGI [27]: 76.4 µM
- TGI [28]: > 100 µM
- TGI [29]: 60.9 µM
- TGI [30]: > 100 µM
- TGI [31]: 40.2 µM
- TGI [32]: 97.4 µM
- TGI [33]: > 100 µM
- TGI [34]: 61.5 µM
- TGI [36]: > 100 µM
- TGI [37]: > 100 µM
- TGI [38]: 50 µM
- TGI [39]: > 100 µM
- TGI [40]: 59.5 µM
- TGI [57]: > 100 µM
- TGI [41]: > 100 µM
- TGI [42]: > 100 µM
- TGI [43]: > 100 µM
- TGI [44]: > 100 µM
- TGI [45]: > 100 µM
- TGI [46]: 66.3 µM
- TGI [58]: > 100 µM
- TGI [47]: > 100 µM
- TGI [48]: > 100 µM
- TGI [49]: > 100 µM
- TGI [50]: > 100 µM
- TGI [51]: > 100 µM
- TGI [52]: > 100 µM
- TGI [53]: > 100 µM
- TGI [54]: > 100 µM
- TGI [55]: > 100 µM
